From ChEMBL document CHEMBL1133919, “Identification of selective inhibitors of cyclin dependent kinase 4” (Bioorg Med Chem Lett, 2001)

What follows are compounds tested against Cyclin-dependent kinase 2/cyclin E (Homo sapiens, UniProt P24941) (assay: Inhibition of CDK2/cyclin E). Details: not given.
Type: protein-complex assay

Structure (SMILES) | IC50 [µM]
Oc1ccc2ccc3[nH]c4c(-c5ccccc5)cccc4c3c2c1 | 97

Each compound was assayed against Cyclin-dependent kinase 1 (Homo sapiens) (UniProt P06493) (assay: Inhibition of Cyclin dependent kinase CDK1/B). Details: not given.
Cyclin-dependent kinase 1 (Homo sapiens), sequence (P06493 whole entry, looked up): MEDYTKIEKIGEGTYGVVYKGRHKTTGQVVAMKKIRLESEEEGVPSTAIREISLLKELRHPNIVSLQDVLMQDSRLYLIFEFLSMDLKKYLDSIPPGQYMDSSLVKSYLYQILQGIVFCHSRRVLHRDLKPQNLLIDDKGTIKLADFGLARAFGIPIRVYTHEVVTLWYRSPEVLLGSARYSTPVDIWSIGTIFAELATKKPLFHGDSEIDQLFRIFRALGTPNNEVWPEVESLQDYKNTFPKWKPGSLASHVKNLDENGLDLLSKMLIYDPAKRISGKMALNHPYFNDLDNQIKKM

Structure (SMILES) | IC50 [µM]
Nc1cccc(-c2cccc3c2[nH]c2ccc4ccc(O)cc4c23)c1 | 74.5

What follows are compounds tested on SKUT-1A (assay: Inhibition of Rb negative Skut 1A cell proliferation). Details: Homo sapiens.
Type: functional, cell-based

Structure (SMILES) | IC50 [µM]
Nc1cccc(-c2cccc3c2[nH]c2ccc4ccc(O)cc4c23)c1 | 11.6
Oc1ccc(-c2cccc3c2[nH]c2ccc4ccc(O)cc4c23)cc1 | 5.6
Oc1ccc2ccc3[nH]c4c(-c5ccc(Cl)cc5)cccc4c3c2c1 | 36
Oc1ccc2ccc3[nH]c4c(-c5ccccc5)cccc4c3c2c1 | 10.7

What follows are compounds tested against Cyclin-dependent kinase 1/cyclin B (Homo sapiens, UniProt P06493) (assay: Inhibition of CDK1/cyclin B). Details: not given.
Type: protein-complex assay

Structure (SMILES) | IC50 [µM]
Oc1ccc2ccc3[nH]c4c(-c5ccccc5)cccc4c3c2c1 | 95

The compounds below were run on HCT-116 (assay: Inhibition of colon carcinoma cell line HCT116 proliferation). Details: Homo sapiens.
Type: functional, cell-based

Structure (SMILES) | IC50 [µM]
Nc1cccc(-c2cccc3c2[nH]c2ccc4ccc(O)cc4c23)c1 | 9.6
Oc1ccc(-c2cccc3c2[nH]c2ccc4ccc(O)cc4c23)cc1 | 2.2
Oc1ccc2ccc3[nH]c4c(-c5ccc(Cl)cc5)cccc4c3c2c1 | 51
Oc1ccc2ccc3[nH]c4c(-c5ccccc5)cccc4c3c2c1 | 10.2

Each compound was assayed on Skut1B (assay: Inhibition of Rb positive Skut 1B cell proliferation). Details: Homo sapiens.
Type: functional, cell-based

Structure (SMILES) | IC50 [µM]
Nc1cccc(-c2cccc3c2[nH]c2ccc4ccc(O)cc4c23)c1 | 4.1
Oc1ccc(-c2cccc3c2[nH]c2ccc4ccc(O)cc4c23)cc1 | 2.3
Oc1ccc2ccc3[nH]c4c(-c5ccc(Cl)cc5)cccc4c3c2c1 | 10.2
Oc1ccc2ccc3[nH]c4c(-c5ccccc5)cccc4c3c2c1 | 2.8

What follows are compounds tested against T1, Cyclin-dependent kinase 4/cyclin D1 (Homo sapiens, UniProt P11802) (assay: Inhibitory activity against Cyclin dependent kinase CDK4/D1). Details: not given.
Type: protein-complex assay

T1 sequence (P11802 whole entry): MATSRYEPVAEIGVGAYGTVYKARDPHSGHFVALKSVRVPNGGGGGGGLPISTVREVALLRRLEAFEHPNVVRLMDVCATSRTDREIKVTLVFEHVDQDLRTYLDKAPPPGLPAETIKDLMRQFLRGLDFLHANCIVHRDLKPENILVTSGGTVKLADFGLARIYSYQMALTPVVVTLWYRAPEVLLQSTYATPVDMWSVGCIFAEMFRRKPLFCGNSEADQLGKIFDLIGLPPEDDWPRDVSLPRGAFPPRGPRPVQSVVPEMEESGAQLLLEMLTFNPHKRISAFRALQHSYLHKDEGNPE
T1 sequence (P24385 whole entry, further chain): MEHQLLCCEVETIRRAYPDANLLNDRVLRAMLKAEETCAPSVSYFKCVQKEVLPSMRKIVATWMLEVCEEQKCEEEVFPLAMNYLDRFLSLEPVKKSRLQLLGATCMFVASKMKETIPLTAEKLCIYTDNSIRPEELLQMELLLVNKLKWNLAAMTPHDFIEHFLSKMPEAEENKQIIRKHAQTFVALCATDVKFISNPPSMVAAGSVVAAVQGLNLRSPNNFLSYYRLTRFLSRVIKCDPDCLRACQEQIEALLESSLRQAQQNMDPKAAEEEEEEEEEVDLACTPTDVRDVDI

Structure (SMILES) | IC50 [µM]
Oc1ccc2c(ccc3[nH]c4c(-c5ccccc5)cccc4c32)c1 | 29
c1ccc2c(c1)[nH]c1ccc3cnccc3c12 | 30
c1ccc(-c2cccc3c2[nH]c2ccc4ccccc4c23)cc1 | > 341
COc1ccc2ccc3[nH]c4c(-c5ccccc5)cccc4c3c2c1 | > 309
Oc1ccc2ccc3[nH]c4ccc(-c5ccccc5)cc4c3c2c1 | 37.5
Oc1ccc2ccc3[nH]c4cccc(-c5ccccc5)c4c3c2c1 | 83
Nc1cccc(-c2cccc3c2[nH]c2ccc4ccc(O)cc4c23)c1 | 2.3
c1ccc2c(c1)[nH]c1ccc3ncccc3c12 | 197
Oc1cccc2c1ccc1[nH]c3c(-c4ccccc4)cccc3c12 | 5.8
Oc1cccc2ccc3[nH]c4c(-c5ccccc5)cccc4c3c12 | 19.5
Oc1ccc(-c2cccc3c2[nH]c2ccc4ccc(O)cc4c23)cc1 | 1.9
Oc1ccc2ccc3[nH]c4cc(-c5ccccc5)ccc4c3c2c1 | 22
Nc1ccc2ccc3[nH]c4c(-c5ccccc5)cccc4c3c2c1 | 27.3
c1cnc2c(c1)ccc1[nH]c3ccccc3c12 | 442
Oc1ccc2ccc3[nH]c4c(-c5ccc(Cl)cc5)cccc4c3c2c1 | 9.9
Oc1ccc2ccc3[nH]c4ccccc4c3c2c1 | 17.4
c1ccc2c(c1)[nH]c1ccc3ccncc3c12 | 159
[O-][n+]1ccc2ccc3[nH]c4ccccc4c3c2c1 | 605
[O-][n+]1ccc2c(ccc3[nH]c4ccccc4c32)c1 | 59

The compounds below were run against T1, Cyclin-dependent kinase 4/cyclin D1 (assay: Inhibition of Cyclin dependent kinase CDK4/cyclin D1). Details: not given.
Type: protein-complex assay

Structure (SMILES) | IC50 [µM]
Oc1ccc2ccc3[nH]c4c(-c5ccccc5)cccc4c3c2c1 | 3.6
